# Experimental data from ChEMBL document CHEMBL6096733, “Structure-Based Virtual Screening Identifies 2-Arylthiazole-4-Carboxylic Acids as a Novel Class of Nanomolar Affinity Ligands for the CaMKIIα Hub Domain” (J Med Chem, 2025).
# Experiments:
# [1] = molecular target: Calcium/calmodulin-dependent protein kinase type II subunit alpha (Rattus norvegicus, UniProt P11275); experiment: Inhibition of […] binding to CaMKIIalpha in rat brain cortical membrane assessed as inhibition constant incubated for 1 hrs by TopCount NXT microplate scintillation counter analysis; assay type: cell membranes, Cortex
# [2] = Chemical stability of compound in phosphate buffer solution at pH 7.4; assay type: physicochemical
# [3] = Metabolic stability in pooled human plasma assessed as parent compound remaining at 20 uM measured after 60 mins by LC-MS analysis; assay type: ADME, cell-free; details: read-out: Stability
# [4] = Metabolic stability in pooled CD-1 mouse liver microsomes assessed as parent compound remaining at 10 uM measured after 15 mins in presence of NADPH regeneration system by LC-MS analysis; assay type: ADME, Microsome; details: read-out: Stability
# [5] = Metabolic stability in pooled human plasma assessed as parent compound remaining at 20 uM measured immediately by LC-MS analysis; assay type: ADME, cell-free; details: read-out: Stability
# [6] = Drug concentration in mouse brain at 10 mg/kg, po measured after 0.5 hrs by LC-MS/MS analysis; assay type: ADME, organism-based; details: read-out: Ct
# [7] = Metabolic stability in pooled human plasma assessed as parent compound remaining at 20 uM measured after 30 mins by LC-MS analysis; assay type: ADME, cell-free; details: read-out: Stability
# [8] = Ratio of drug concentration in mouse brain to plasma at 10 mg/kg, po measured after 0.5 hrs by LC-MS/MS analysis; assay type: ADME, organism-based; details: brain and plasma, read-out: BPR
# [9] = Prodrug conversion in mouse assessed as ratio of unbound 2-(2,6-dichlorophenyl)thiazole-4-carboxylic acid concentration in brain to plasma at 10 mg/kg, po measured after 0.5 hrs by LC-MS/MS analysis; assay type: ADME, organism-based
# [10] = Metabolic stability in pooled human plasma assessed as parent compound remaining at 20 uM measured after 120 mins by LC-MS analysis; assay type: ADME, cell-free; details: read-out: Stability
# [11] = Metabolic stability in pooled CD-1 mouse liver microsomes assessed as parent compound remaining at 10 uM measured after 30 mins in presence of NADPH regeneration system by LC-MS analysis; assay type: ADME, Microsome; details: read-out: Stability
# [12] = Drug concentration in mouse plasma at 10 mg/kg, po measured after 0.5 hrs by LC-MS/MS analysis; assay type: ADME, organism-based
# [13] = Metabolic stability in pooled CD-1 mouse liver microsomes assessed as parent compound remaining at 10 uM measured immediately in presence of NADPH regeneration system by LC-MS analysis; assay type: ADME, Microsome; details: read-out: Stability
# [14] = Ratio of unbound brain to plasma drug concentration in mouse at 10 mg/kg, po measured after 0.5 hrs by LC-MS/MS analysis; assay type: ADME, organism-based; details: brain and plasma, read-out: K(p,uu,brain)
# [15] = Prodrug conversion in mouse plasma assessed as 2-(2,6-dichlorophenyl)thiazole-4-carboxylic acid concentration at 10 mg/kg, po measured after 0.5 hrs by LC-MS/MS analysis; assay type: ADME, organism-based; details: in vivo
# [16] = Metabolic stability in pooled CD-1 mouse liver microsomes assessed as parent compound remaining at 10 uM measured after 60 mins in presence of NADPH regeneration system by LC-MS analysis; assay type: ADME, Microsome; details: read-out: Stability
# [17] = Prodrug conversion in mouse assessed as ratio of 2-(2,6-dichlorophenyl)thiazole-4-carboxylic acid concentration in brain to plasma at 10 mg/kg, po measured after 0.5 hrs by LC-MS/MS analysis; assay type: ADME, organism-based
# [18] = Prodrug conversion in mouse brain assessed as 2-(2,6-dichlorophenyl)thiazole-4-carboxylic acid concentration at 10 mg/kg, po measured after 0.5 hrs by LC-MS/MS analysis; assay type: ADME, organism-based; details: in vivo
# physchem = details: potassium phosphate buffer, pH 7.4
# Description: Stability of compound in potassium phosphate buffer at pH 7.4 assessed as half-life
# [19] = Prodrug conversion in mouse brain assessed as 2-(2,6-dichlorophenyl)thiazole-4-carboxylic acid release at 10 mg/kg, po measured after 0.5 hrs by LC-MS/MS analysis; assay type: ADME, organism-based; details: in vivo
# [20] = Prodrug conversion in mouse plasma assessed as 2-(2,6-dichlorophenyl)thiazole-4-carboxylic acid release at 10 mg/kg, po measured after 0.5 hrs by LC-MS/MS analysis; assay type: ADME, organism-based; details: in vivo
# [21] = Ratio of drug concentration in mouse brain to plasma at 10 mg/kg, ip measured after 0.5 hrs by LC-MS/MS analysis; assay type: ADME, organism-based; details: brain and plasma, read-out: BPR
# [22] = molecular target: T1, Calcium/calmodulin-dependent protein kinase type II subunit alpha (Homo sapiens, UniProt Q9UQM7); experiment: Binding affinity to recombinant wildtype human CAMKIIalpha hub domain (345 to 475 residues) extracted from Escherichia coli BL21 (DE3) cells assessed as dissociation constant by SPR analysis
# BCRP [23] = experiment: Efflux ratio of apparent permeability across basolateral to apical side over apical to basolateral side in human Caco-2 cells transfected with human BCRP at 3 uM measured after 60 to 90 mins by LC-MS/MS analysis; assay type: ADME, cell-based; details: time 60-90 min
# BCRP [24] = experiment: Apparent permeability across apical to basolateral side in human Caco-2 cells transfected with human BCRP at 3 uM measured after 60 to 90 mins by LC-MS/MS analysis; assay type: ADME, cell-based; details: time 60-90 min
# BCRP [25] = experiment: Apparent permeability across basolateral to apical side in human Caco-2 cells transfected with human BCRP at 3 uM preincubated with novobiocin for 15 to 30 mins followed by compound addition and measured after 60 to 90 mins by LC-MS/MS analysis; assay type: ADME, cell-based; details: time 60-90 min
# BCRP [26] = experiment: Apparent permeability across basolateral to apical side in human Caco-2 cells transfected with human BCRP at 3 uM measured after 60 to 90 mins by LC-MS/MS analysis; assay type: ADME, cell-based; details: time 60-90 min
# [27] = Drug concentration in mouse plasma at 10 mg/kg, ip measured after 0.5 hrs by LC-MS/MS analysis; assay type: ADME, organism-based
# [28] = Ratio of unbound brain to plasma drug concentration in mouse at 10 mg/kg, ip measured after 0.5 hrs by LC-MS/MS analysis; assay type: ADME, organism-based; details: brain and plasma, read-out: K(p,uu,brain)
# BCRP [29] = experiment: Efflux ratio of apparent permeability across basolateral to apical side over apical to basolateral side in human Caco-2 cells transfected with human BCRP at 3 uM preincubated with novobiocin for 15 to 30 mins followed by compound addition and measured after 60 to 90 mins by LC-MS/MS analysis; assay type: ADME, cell-based; details: time 60-90 min
# [30] = molecular target: T1, Calcium/calmodulin-dependent protein kinase type II subunit alpha; experiment: Induction of thermal stabilization of recombinant wildtype human CAMKIIalpha hub domain (345 to 475 residues) extracted from Escherichia coli BL21 (DE3) cells by differential scanning fluorimetric analysis; details: dose 0.625-320 µM
# BCRP [31] = experiment: Apparent permeability across apical to basolateral side in human Caco-2 cells transfected with human BCRP at 3 uM preincubated with novobiocin for 15 to 30 mins followed by compound addition and measured after 60 to 90 mins by LC-MS/MS analysis; assay type: ADME, cell-based; details: time 60-90 min
# [32] = molecular target: T1, Calcium/calmodulin-dependent protein kinase type II subunit alpha; experiment: Induction of thermal stabilization of recombinant wildtype human CAMKIIalpha hub domain (345 to 475 residues) extracted from Escherichia coli BL21 (DE3) cells assessed as change in melting temperature at 0.625 to 320 microM by differential scanning fluorimetric analysis; details: dose 0.625-320 µM
# [33] = Drug concentration in mouse brain at 10 mg/kg, ip measured after 0.5 hrs by LC-MS/MS analysis; assay type: ADME, organism-based; details: read-out: Ct
# T1 sequence (Q9UQM7 whole entry, the tested form may be a part): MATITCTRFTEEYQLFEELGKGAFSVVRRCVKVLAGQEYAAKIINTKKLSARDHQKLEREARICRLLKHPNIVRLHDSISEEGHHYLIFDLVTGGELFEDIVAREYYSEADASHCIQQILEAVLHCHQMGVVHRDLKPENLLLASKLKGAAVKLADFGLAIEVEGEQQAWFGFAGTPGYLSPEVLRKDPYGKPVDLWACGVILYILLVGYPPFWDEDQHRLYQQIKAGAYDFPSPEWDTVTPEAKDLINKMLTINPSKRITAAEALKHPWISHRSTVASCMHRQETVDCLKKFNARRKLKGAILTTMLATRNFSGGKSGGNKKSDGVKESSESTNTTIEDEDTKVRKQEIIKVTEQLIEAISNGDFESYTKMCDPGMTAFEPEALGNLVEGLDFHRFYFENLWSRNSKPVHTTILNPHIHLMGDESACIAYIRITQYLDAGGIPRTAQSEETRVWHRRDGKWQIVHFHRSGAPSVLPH
# Sequence of Calcium/calmodulin-dependent protein kinase type II subunit alpha (Rattus norvegicus, UniProt P11275) (P11275 whole entry): as the sequence (Q9UQM7 whole entry, the tested form may be a part) above, with S324N counted along it
smiles,measurement,setting,value
CC(C)(C)OC(=O)c1csc(-c2c(Cl)cccc2Cl)n1,Ki,[1]; read-out: Ki,56.4 µM
same,Stability,[2],Unstable
same,"remaining at 1 h, 20 µM",[3],74%
same,"remaining at 0.25 h, 10 µM",[4],70%
same,"remaining at 0 min, 20 µM",[5],100%
same,concentration at 0.5 h,[6],627 ng/g
same,"remaining at 0.5 h, 20 µM",[7],78%
same,Kp at 0.5 h,[8],4.7
same,"K(p,uu,brain)",[9],0.13
same,"remaining at 2 h, 20 µM",[10],70%
same,"remaining at 0.5 h, 10 µM",[11],53%
same,concentration at 0.5 h,[12],137 ng/mL
same,"remaining at 0 min, 10 µM",[13],100%
same,Kp uu at 0.5 h,[14],0.49
same,Cp,[15],2154 ng/mL
same,"remaining at 1 h, 10 µM",[16],45%
same,BPR,[17],0.03
same,Ct,[18],54 ng/g
CCN(CC)CCOC(=O)c1ccc(N)cc1 [PROCAINE],half-life,physchem,2 min
O=C(O)Cc1csc(-c2ccccc2)n1,Ki,[1]; read-out: Ki,3.1 µM
CC(C)(C)COC(=O)c1csc(-c2c(Cl)cccc2Cl)n1,Ki,[1]; read-out: Ki,> 100 µM
same,Stability,[2],Unstable
same,"remaining at 1 h, 20 µM",[3],65%
same,"remaining at 0.25 h, 10 µM",[4],84%
same,Drug metabolism,[19],metabolite_notdetected
same,"remaining at 0 min, 20 µM",[5],100%
same,"remaining at 0.5 h, 20 µM",[7],75%
same,"remaining at 2 h, 20 µM",[10],63%
same,Drug metabolism,[20],metabolite_notdetected
same,"remaining at 0.5 h, 10 µM",[11],75%
same,"remaining at 0 min, 10 µM",[13],100%
same,"remaining at 1 h, 10 µM",[16],59%
Clc1cccc(Cl)c1-c1nc(Cc2nnn[nH]2)cs1,Ki,[1]; read-out: Ki,44.8 µM
OC1(c2csc(-c3c(Cl)cccc3Cl)n2)COC1,Ki,[1]; read-out: Ki,> 100 µM
Cc1ccccc1-c1nc(C(=O)O)cs1,Ki,[1]; read-out: Ki,0.9 µM
O=C(O)c1csc(Cc2ccccc2)n1,Ki,[1]; read-out: Ki,1.4 µM
O=C(O)c1csc(-c2c(Cl)cccc2Cl)n1,Kp at 0.5 h,[21],0.02
same,Kd,[22],0.759 µM
same,Ki,[1]; read-out: Ki,0.062 µM
same,efflux ratio at 3 µM,BCRP [23],1.06
same,Papp A→B at 3 µM,BCRP [24],10.7 ×10⁻⁶ cm/s
same,Stability,[2],Stable
same,"remaining at 1 h, 20 µM",[3],98%
same,"remaining at 0.25 h, 10 µM",[4],101%
same,"remaining at 0 min, 20 µM",[5],100%
same,"remaining at 0.5 h, 20 µM",[7],101%
same,Papp B→A at 3 µM,BCRP [25],11.4 ×10⁻⁶ cm/s
same,Papp B→A at 3 µM,BCRP [26],11.3 ×10⁻⁶ cm/s
same,concentration at 0.5 h,[27],18600 ng/mL
same,Kp uu at 0.5 h,[28],0.1
same,efflux ratio at 3 µM,BCRP [29],1.05
same,"remaining at 2 h, 20 µM",[10],94%
same,"remaining at 0.5 h, 10 µM",[11],104%
same,"remaining at 0 min, 10 µM",[13],100%
same,Activity,[30],Dose-dependent-effect
same,Papp A→B at 3 µM,BCRP [31],10.9 ×10⁻⁶ cm/s
same,ΔTm,[32],21.4 °C
same,"remaining at 1 h, 10 µM",[16],100%
same,concentration at 0.5 h,[33],350 ng/g
O=C(O)c1csc(-c2ccc(Cl)c(Cl)c2)n1,Ki,[1]; read-out: Ki,1.6 µM
O=C(O)c1csc(-c2c(F)cccc2F)n1,Ki,[1]; read-out: Ki,0.71 µM
O=C(O)Cc1csc(-c2cccc3ccccc23)n1,Ki,[1]; read-out: Ki,9.9 µM
O=C(O)c1csc(-c2ccc(O)cc2)n1,Ki,[1]; read-out: Ki,12.6 µM
O=C(O)c1csc(-c2ccccc2Cl)n1,Ki,[1]; read-out: Ki,1 µM
Clc1cccc(Cl)c1-c1nc(-c2nnn[nH]2)cs1,Ki,[1]; read-out: Ki,0.19 µM
O=C(O)c1csc(-c2c(Br)cccc2Br)n1,Ki,[1]; read-out: Ki,0.05 µM
same,Activity,[30],Dose-dependent-effect
same,ΔTm,[32],22 °C
Cc1cccc(C)c1-c1nc(C(=O)O)cs1,Ki,[1]; read-out: Ki,0.1 µM
same,Activity,[30],Dose-dependent-effect
same,ΔTm,[32],18 °C
COc1ccc(-c2nc(C(=O)O)cs2)cc1,Ki,[1]; read-out: Ki,7.2 µM
O=C(O)c1csc(/C=C/c2ccccc2)n1,Ki,[1]; read-out: Ki,3.2 µM
O=C(O)c1csc(-c2ccncc2)n1,Ki,[1]; read-out: Ki,60.2 µM
O=C(O)C1=CC(O)CC1 (stereo not given),Ki,[1]; read-out: pKi (converted),0.126 µM
